Source: ChEMBL document CHEMBL4507284, “Data for DCP probe BI-1230” (2021)

Key:
[1] = target: Tyrosine-protein kinase ABL1 (Homo sapiens) (UniProt P00519); details: Compound concentration 1000.0 nM
[2] = target: Activin receptor type-1 (Homo sapiens) (UniProt Q04771); details: Compound concentration 1000.0 nM
[3] = target: Ankyrin repeat and protein kinase domain-containing protein 1 (Homo sapiens) (UniProt Q8NFD2); details: Compound concentration 1000.0 nM
[4] = target: Cytoplasmic tyrosine-protein kinase BMX (Homo sapiens) (UniProt P51813); details: Compound concentration 1000.0 nM
[5] = target: Serine/threonine-protein kinase B-raf (Homo sapiens) (UniProt P15056); details: Compound concentration 1000.0 nM
[6] = target: Calcium/calmodulin-dependent protein kinase type 1D (Homo sapiens) (UniProt Q8IU85); details: Compound concentration 1000.0 nM
[7] = target: Calcium/calmodulin-dependent protein kinase kinase 1 (Homo sapiens) (UniProt Q8N5S9); details: Compound concentration 1000.0 nM
[8] = target: Cyclin-dependent kinase 3 (Homo sapiens) (UniProt Q00526); details: Compound concentration 1000.0 nM
[9] = target: Cyclin-dependent kinase-like 1 (Homo sapiens) (UniProt Q00532); details: Compound concentration 1000.0 nM
[10] = tested on: Epidermal growth factor receptor (Homo sapiens), P00533 [L861Q]; details: Compound concentration 1000.0 nM
[11] = target: Eukaryotic translation initiation factor 2-alpha kinase 1 (Homo sapiens) (UniProt Q9BQI3); details: Compound concentration 1000.0 nM
[12] = target: Ephrin type-A receptor 6 (Homo sapiens) (UniProt Q9UF33); details: Compound concentration 1000.0 nM
[13] = target: Mitogen-activated protein kinase 3 (Homo sapiens) (UniProt P27361); details: Compound concentration 1000.0 nM
[14] = target: Mitogen-activated protein kinase 4 (Homo sapiens) (UniProt P31152); details: Compound concentration 1000.0 nM
[15] = target: Mitogen-activated protein kinase 15 (Homo sapiens) (UniProt Q8TD08); details: Compound concentration 1000.0 nM
[16] = target: Fibroblast growth factor receptor 3 (Homo sapiens) (UniProt P22607); details: Compound concentration 1000.0 nM
[17] = tested on: Receptor-type tyrosine-protein kinase FLT3 (Homo sapiens), P36888 [UNDEFINED MUTATION]; details: Compound concentration 1000.0 nM
[18] = target: G protein-coupled receptor kinase 4 (Homo sapiens) (UniProt P32298); details: Compound concentration 1000.0 nM
[19] = target: Rhodopsin kinase GRK7 (Homo sapiens) (UniProt Q8WTQ7); details: Compound concentration 1000.0 nM
[20] = target: Homeodomain-interacting protein kinase 4 (Homo sapiens) (UniProt Q8NE63); details: Compound concentration 1000.0 nM
[21] = tested on: Mast/stem cell growth factor receptor Kit (Homo sapiens), P10721 [D816V]; details: Compound concentration 1000.0 nM
[22] = tested on: Mast/stem cell growth factor receptor Kit (Homo sapiens), P10721 [V559D,T670I]; details: Compound concentration 1000.0 nM
[23] = target: Mitogen-activated protein kinase kinase kinase 1 (Homo sapiens) (UniProt Q13233); details: Compound concentration 1000.0 nM
[24] = target: Mitogen-activated protein kinase kinase kinase kinase 3 (Homo sapiens) (UniProt Q8IVH8); details: Compound concentration 1000.0 nM
[25] = target: Serine/threonine-protein kinase MARK1 (Homo sapiens) (UniProt Q9P0L2); details: Compound concentration 1000.0 nM
[26] = tested on: Hepatocyte growth factor receptor (Homo sapiens), P08581 [Y1235D]; details: Compound concentration 1000.0 nM
[27] = target: Mitogen-activated protein kinase kinase kinase 10 (Homo sapiens) (UniProt Q02779); details: Compound concentration 1000.0 nM
[28] = target: Serine/threonine-protein kinase 24 (Homo sapiens) (UniProt Q9Y6E0); details: Compound concentration 1000.0 nM
[29] = target: Serine/threonine-protein kinase PAK 2 (Homo sapiens) (UniProt Q13177); details: Compound concentration 1000.0 nM
[30] = target: Phosphatidylinositol 4-phosphate 3-kinase C2 domain-containing subunit beta (Homo sapiens) (UniProt O00750); details: Compound concentration 1000.0 nM
[31] = target: Serine/threonine-protein kinase PLK1 (Homo sapiens) (UniProt P53350); details: Compound concentration 1000.0 nM
[32] = target: cGMP-dependent protein kinase 2 (Homo sapiens) (UniProt Q13237); details: Compound concentration 1000.0 nM
[33] = target: Receptor-interacting serine/threonine-protein kinase 1 (Homo sapiens) (UniProt Q13546); details: Compound concentration 1000.0 nM
[34] = target: Ribosomal protein S6 kinase alpha-5 (Homo sapiens) (UniProt O75582); details: Compound concentration 1000.0 nM
[35] = target: Ribosomal protein S6 kinase alpha-3 (Homo sapiens) (UniProt P51812); details: Compound concentration 1000.0 nM
[36] = target: Serine/threonine-protein kinase SBK1 (Homo sapiens) (UniProt Q52WX2); details: Compound concentration 1000.0 nM
[37] = target: Uncharacterized serine/threonine-protein kinase SBK3 (Homo sapiens) (UniProt P0C264); details: Compound concentration 1000.0 nM
[38] = target: SNF-related serine/threonine-protein kinase (Homo sapiens) (UniProt Q9NRH2); details: Compound concentration 1000.0 nM
[39] = target: Serine/threonine-protein kinase TAO2 (Homo sapiens) (UniProt Q9UL54); details: Compound concentration 1000.0 nM
[40] = target: Serine/threonine-protein kinase TNNI3K (Homo sapiens) (UniProt Q59H18); details: Compound concentration 1000.0 nM
[41] = target: Dual specificity protein kinase TTK (Homo sapiens) (UniProt P33981); details: Compound concentration 1000.0 nM
[42] = target: Tyrosine-protein kinase TXK (Homo sapiens) (UniProt P42681); details: Compound concentration 1000.0 nM
[43] = target: Sodium-dependent serotonin transporter (Homo sapiens) (UniProt P31645); details: Compound concentration 10.0 uM
[44] = target: Histamine H1 receptor (Homo sapiens) (UniProt P35367); details: Compound concentration 10.0 uM
[45] = target: Muscarinic acetylcholine receptor M3 (Homo sapiens) (UniProt P20309); details: Compound concentration 10.0 uM

Serine/threonine-protein kinase TNNI3K (Homo sapiens), sequence (Q59H18 whole entry): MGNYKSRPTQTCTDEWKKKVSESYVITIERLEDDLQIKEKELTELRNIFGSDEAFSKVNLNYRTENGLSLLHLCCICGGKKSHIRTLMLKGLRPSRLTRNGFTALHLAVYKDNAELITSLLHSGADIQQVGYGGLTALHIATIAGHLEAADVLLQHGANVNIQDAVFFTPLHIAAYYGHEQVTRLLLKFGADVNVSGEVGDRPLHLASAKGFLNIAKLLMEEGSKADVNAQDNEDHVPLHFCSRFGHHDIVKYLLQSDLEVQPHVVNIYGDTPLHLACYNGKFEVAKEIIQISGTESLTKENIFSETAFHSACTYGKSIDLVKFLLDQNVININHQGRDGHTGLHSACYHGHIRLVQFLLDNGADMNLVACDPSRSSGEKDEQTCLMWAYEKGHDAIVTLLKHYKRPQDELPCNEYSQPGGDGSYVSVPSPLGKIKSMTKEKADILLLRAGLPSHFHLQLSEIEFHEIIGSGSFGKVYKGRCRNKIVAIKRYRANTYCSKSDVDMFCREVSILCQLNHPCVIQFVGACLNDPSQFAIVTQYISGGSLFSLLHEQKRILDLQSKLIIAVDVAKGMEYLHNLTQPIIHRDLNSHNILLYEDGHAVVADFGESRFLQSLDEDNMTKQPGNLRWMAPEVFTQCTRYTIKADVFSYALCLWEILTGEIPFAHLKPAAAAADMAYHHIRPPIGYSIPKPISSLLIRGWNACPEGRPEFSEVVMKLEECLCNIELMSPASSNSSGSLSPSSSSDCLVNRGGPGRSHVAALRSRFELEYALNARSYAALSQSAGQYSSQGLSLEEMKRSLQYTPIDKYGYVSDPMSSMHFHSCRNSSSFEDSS
Dual specificity protein kinase TTK (Homo sapiens), sequence (P33981 whole entry): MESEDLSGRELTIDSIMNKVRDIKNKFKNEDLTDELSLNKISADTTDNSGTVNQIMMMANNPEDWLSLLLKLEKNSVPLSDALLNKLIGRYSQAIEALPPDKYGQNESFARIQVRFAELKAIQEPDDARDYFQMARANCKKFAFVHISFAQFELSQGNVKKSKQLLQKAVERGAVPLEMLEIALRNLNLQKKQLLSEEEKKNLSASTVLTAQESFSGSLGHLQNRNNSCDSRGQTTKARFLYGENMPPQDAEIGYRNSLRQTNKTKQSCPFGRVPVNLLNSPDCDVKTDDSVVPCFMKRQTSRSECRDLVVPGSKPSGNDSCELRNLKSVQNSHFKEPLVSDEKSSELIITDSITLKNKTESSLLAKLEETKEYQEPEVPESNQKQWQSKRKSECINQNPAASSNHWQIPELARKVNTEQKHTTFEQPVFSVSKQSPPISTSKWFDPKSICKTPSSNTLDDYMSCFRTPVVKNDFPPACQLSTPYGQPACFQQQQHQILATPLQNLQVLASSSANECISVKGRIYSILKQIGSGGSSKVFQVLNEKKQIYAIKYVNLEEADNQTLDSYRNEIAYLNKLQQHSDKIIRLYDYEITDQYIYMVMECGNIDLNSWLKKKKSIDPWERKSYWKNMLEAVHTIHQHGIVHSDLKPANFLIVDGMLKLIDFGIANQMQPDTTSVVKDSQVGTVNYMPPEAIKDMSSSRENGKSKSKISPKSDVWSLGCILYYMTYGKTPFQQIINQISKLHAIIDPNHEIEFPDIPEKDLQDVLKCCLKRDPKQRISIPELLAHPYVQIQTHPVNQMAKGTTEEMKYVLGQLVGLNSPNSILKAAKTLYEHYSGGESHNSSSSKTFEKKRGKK
Serine/threonine-protein kinase SBK1 (Homo sapiens), sequence (Q52WX2 whole entry): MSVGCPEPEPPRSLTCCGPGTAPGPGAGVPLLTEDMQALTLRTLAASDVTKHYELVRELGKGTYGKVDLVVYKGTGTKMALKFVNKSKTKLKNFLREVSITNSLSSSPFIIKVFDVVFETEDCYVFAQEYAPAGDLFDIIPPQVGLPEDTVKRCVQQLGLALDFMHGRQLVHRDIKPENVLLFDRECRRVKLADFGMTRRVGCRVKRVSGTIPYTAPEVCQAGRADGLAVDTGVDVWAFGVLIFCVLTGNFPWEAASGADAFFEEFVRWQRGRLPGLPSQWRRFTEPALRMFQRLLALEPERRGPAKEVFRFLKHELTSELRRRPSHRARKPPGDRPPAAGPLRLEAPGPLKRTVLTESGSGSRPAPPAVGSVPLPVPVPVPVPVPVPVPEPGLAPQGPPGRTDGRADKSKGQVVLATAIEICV
G protein-coupled receptor kinase 4 (Homo sapiens), sequence (P32298 whole entry, looked up): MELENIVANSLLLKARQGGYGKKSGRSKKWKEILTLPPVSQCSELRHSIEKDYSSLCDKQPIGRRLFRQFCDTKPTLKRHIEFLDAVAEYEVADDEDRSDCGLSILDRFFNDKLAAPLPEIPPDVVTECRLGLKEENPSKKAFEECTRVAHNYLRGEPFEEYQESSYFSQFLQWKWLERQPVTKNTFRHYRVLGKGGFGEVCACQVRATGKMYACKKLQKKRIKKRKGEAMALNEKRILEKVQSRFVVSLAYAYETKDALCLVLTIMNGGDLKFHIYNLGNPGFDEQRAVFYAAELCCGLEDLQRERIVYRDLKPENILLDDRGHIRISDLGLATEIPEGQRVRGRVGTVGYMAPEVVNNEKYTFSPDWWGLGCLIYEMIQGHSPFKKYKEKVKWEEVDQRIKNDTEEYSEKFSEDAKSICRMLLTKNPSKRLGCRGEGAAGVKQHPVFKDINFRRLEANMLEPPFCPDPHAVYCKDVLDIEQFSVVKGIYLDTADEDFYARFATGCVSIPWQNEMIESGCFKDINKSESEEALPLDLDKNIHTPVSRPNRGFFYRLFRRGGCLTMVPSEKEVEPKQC
Mast/stem cell growth factor receptor Kit (Homo sapiens), P10721 [D816V], sequence (P10721 whole entry D816V): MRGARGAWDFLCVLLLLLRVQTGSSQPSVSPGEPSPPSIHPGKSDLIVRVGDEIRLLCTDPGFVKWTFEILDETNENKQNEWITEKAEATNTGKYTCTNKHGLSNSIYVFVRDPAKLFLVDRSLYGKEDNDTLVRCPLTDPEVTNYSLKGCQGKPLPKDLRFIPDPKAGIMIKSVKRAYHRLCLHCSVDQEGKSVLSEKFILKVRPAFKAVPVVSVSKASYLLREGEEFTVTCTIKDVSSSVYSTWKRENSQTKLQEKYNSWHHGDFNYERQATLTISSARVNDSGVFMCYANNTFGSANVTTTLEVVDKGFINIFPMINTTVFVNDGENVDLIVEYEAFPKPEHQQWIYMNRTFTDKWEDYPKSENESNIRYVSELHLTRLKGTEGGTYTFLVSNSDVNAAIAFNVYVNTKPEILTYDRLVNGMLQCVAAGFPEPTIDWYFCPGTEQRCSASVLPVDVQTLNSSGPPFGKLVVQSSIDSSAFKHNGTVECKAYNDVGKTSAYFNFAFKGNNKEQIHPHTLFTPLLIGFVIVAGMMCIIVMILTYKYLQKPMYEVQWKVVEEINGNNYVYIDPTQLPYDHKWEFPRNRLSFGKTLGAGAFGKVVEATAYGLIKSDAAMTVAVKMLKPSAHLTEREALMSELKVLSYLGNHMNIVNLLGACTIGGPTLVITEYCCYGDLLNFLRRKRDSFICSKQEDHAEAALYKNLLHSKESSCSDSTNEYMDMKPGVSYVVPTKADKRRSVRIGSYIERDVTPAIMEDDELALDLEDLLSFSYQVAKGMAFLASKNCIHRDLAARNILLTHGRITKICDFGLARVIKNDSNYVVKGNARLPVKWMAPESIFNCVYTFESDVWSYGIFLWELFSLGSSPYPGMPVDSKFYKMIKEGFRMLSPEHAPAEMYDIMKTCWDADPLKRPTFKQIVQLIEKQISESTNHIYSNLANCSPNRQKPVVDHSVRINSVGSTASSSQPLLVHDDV
Ankyrin repeat and protein kinase domain-containing protein 1 (Homo sapiens), sequence (Q8NFD2 whole entry, the tested form may be a part): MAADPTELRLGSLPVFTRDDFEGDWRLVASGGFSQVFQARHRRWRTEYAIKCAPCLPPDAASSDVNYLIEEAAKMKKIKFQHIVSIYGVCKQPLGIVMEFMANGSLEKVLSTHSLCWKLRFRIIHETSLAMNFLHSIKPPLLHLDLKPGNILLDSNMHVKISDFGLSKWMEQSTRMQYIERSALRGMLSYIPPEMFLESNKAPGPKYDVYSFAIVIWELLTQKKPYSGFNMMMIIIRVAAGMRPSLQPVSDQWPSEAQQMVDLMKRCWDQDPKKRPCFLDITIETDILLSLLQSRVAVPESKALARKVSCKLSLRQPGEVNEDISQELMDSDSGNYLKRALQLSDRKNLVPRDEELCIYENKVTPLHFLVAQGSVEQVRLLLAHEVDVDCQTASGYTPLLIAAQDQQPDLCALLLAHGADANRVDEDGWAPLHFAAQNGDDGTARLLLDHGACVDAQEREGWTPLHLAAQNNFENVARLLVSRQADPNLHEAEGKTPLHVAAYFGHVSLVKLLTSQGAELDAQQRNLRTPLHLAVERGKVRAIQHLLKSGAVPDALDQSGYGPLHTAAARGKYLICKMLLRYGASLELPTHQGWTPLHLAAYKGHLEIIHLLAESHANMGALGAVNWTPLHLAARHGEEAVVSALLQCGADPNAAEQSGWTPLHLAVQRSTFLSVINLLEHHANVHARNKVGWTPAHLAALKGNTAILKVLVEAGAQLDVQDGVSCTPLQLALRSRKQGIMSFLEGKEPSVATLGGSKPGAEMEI
Eukaryotic translation initiation factor 2-alpha kinase 1 (Homo sapiens), sequence (Q9BQI3 whole entry): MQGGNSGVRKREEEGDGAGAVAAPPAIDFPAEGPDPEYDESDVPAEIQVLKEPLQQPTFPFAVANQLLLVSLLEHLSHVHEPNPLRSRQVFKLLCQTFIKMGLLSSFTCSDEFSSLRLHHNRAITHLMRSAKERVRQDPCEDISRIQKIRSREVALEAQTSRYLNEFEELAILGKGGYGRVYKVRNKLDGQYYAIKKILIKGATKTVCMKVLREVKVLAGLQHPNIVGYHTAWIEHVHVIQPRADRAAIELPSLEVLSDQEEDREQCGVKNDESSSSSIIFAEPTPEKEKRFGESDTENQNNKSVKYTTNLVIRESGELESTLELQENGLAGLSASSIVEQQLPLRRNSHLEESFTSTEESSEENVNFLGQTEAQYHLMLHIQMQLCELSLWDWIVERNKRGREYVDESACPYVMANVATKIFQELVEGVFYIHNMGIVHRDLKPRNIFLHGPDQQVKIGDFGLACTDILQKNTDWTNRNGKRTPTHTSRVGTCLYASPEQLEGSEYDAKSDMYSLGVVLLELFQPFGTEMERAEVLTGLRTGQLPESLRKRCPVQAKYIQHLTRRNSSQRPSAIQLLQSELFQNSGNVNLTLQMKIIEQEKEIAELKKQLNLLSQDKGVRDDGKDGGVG

COc1ccc2c(O[C@@H]3C[C@H]4C(=O)N[C@]5(C(=O)O)CC5/C=C\CCCCC[C@H](NC(=O)OC5CCCC5)C(=O)N4C3)cc(-c3csc(NC(=O)C(C)C)n3)nc2c1C (stereo not given in full) [BI 1230]
inactive: residual activity [1] 93% | residual activity [2] 100% | residual activity [3] 79% | residual activity [4] 57% | residual activity [5] 86% | residual activity [6] 100% | residual activity [7] 100% | residual activity [8] 100% | residual activity [9] 99% | residual activity [10] 100% | residual activity [11] 96% | residual activity [12] 100% | residual activity [13] 94% | residual activity [14] 93% | residual activity [15] 100% | residual activity [16] 100% | residual activity [17] 97% | residual activity [18] 67% | residual activity [19] 87% | residual activity [20] 99% | residual activity [21] 95% | residual activity [22] 76% | residual activity [23] 82% | residual activity [24] 100% | residual activity [25] 100% | residual activity [26] 100% | residual activity [27] 93% | residual activity [28] 100% | residual activity [29] 91% | residual activity [30] 82% | residual activity [31] 77% | residual activity [32] 84% | residual activity [33] 100% | residual activity [34] 100% | residual activity [35] 82% | residual activity [36] 98% | residual activity [37] 99% | residual activity [38] 80% | residual activity [39] 98% | residual activity [40] 100% | residual activity [41] 100% | residual activity [42] 86% | inhibition [43] -8.36% | inhibition [44] 31.5% | inhibition [45] 0.21%

O=C(N[C@H]1CCCCC/C=C\C2C[C@@]2(C(=O)O)NC(=O)[C@@H]2C[C@@H](Oc3ccncc3)CN2C1=O)OC1CCCC1 (stereo not given in full) [BI 1675]
inactive: residual activity [1] 97% | residual activity [2] 100% | residual activity [3] 100% | residual activity [4] 66% | residual activity [5] 100% | residual activity [6] 94% | residual activity [7] 96% | residual activity [8] 100% | residual activity [9] 100% | residual activity [10] 100% | residual activity [11] 100% | residual activity [12] 100% | residual activity [13] 69% | residual activity [14] 100% | residual activity [15] 100% | residual activity [16] 88% | residual activity [17] 100% | residual activity [18] 80% | residual activity [19] 100% | residual activity [20] 100% | residual activity [21] 90% | residual activity [22] 100% | residual activity [23] 84% | residual activity [24] 100% | residual activity [25] 100% | residual activity [26] 81% | residual activity [27] 100% | residual activity [28] 81% | residual activity [29] 79% | residual activity [30] 84% | residual activity [31] 71% | residual activity [32] 88% | residual activity [33] 88% | residual activity [34] 89% | residual activity [35] 89% | residual activity [36] 100% | residual activity [37] 79% | residual activity [38] 97% | residual activity [39] 100% | residual activity [40] 100% | residual activity [41] 79% | residual activity [42] 87% | inhibition [43] -6.94% | inhibition [44] 23.9% | inhibition [45] -5.57%
